Results on eight compounds are retold here after patent US20180162862A1 (President and Fellows of Harvard College, priority 2015, published 2018).

The subject of one test is E. faecalis PBP2a. The test can be described thus: In vitro inhibition of polymerization of 14C-lipid II by E. faecalis PBP2a. The format is biochemical. Conditions: 50 nM PBP2a, 25 min at room temperature.
For the next test, the system named is MSSA Newman. Nature of the test: MIC test in TSB medium with MTT staining, MSSA Newman. Conditions: TSB, 37° C., MTT staining after 22 h. The format is cell-based, Staphylococcus aureus. On the procedure: MIC Test (Methicillin Susceptible Staphylococcus aureus (MSSA Newman))
Overnight cultures of MSSA Newman were grown up in TSB medium at 37° C. The cultures obtained were normalized with TSB to OD600=0.6 and diluted 100-fold. 1.5 μL of a dilution series of Example Compounds in DMSO (100×, in duplicate), and the diluted bacterial culture (150 μL) was added to wells of a sterile, clear 96 well plate and incubated at 37° C.

The subject of another test is MSSA NE1. The test can be described thus: MIC test in TSB medium with MTT staining, MSSA NE1. The format is cell-based, Staphylococcus aureus. On the procedure:
MIC Test (Methicillin Susceptible Staphylococcus aureus (MSSA Newman) and MSSA NE1)
Overnight cultures of MSSA Newman and MSSA NE1 were grown up in TSB medium at 37° C. The cultures obtained were normalized with TSB to O600=0.6 and diluted 100-fold. A sterile, clear 96 well plate was charged with 1.5 μL of a dilution series compound 1882L04 in DMSO (100×, in duplicate), and the diluted bacterial culture was added (150 μL). Moenomycin at a final concentration of 2.3 μM was used as positive control.

Test [1] relates to S. aureus RN4220. Nature of the test: Growth (CFU) of S. aureus RN4220 in the presence of compound. The format is cell-based. Conditions: S. aureus RN4220, 1-6 h.
Another test deals with S. aureus NEI. The test can be described thus: TEM imaging of S. aureus NE1 treated with compound. The format is cell-based. An excerpt: FIGS. 7A and 7B show TEM imaging of S. aureus NEI treated with compound 1882L04.
The test system of test [2] is S. aureus RN4220. Conditions: S. aureus RN4220 grown with 65 ug/mL for 22 h, repeated. On the procedure:
A liquid culture of wild-type S. aureus RN4220 was grown up in the presence of 1882L04 (65 ug/mL) for 22 h. This culture was normalized to OD600=0.6, diluted 100×, and grown up in the presence of 1882L04 (65 ug/mL) and DMSO. The cultures obtained after 22 h were treated as mentioned before and grown up again.

Test [3] addresses T1, S. aureus SgtB (Staphylococcus aureus, UniProt Q99T05). Conditions: read-out: IC50, in vitro inhibition of S. aureus SgtB; 50 nM SgtB, 14C-lipid II, 25 min at room temperature, two independent experiments.
Protocol: In Vitro Inhibition of Polymerization of Lipid II by PGTs
(i) In Vitro Inhibition of S. aureus SgtB:
Then ^14C-labelled lipid II (1 μL, 40 μM, ^14C/^12C 1/3) was added and the polymerization reaction was allowed to proceed for 25 min at room temperature. The reaction was quenched with 10 μL of a solution of moenomycin (1 μM) in 10% triton-X reduced and the remaining lipid II was separated from peptidoglycan (PG) using paper strip chromatography (isobutyric acid/1M NH4OH 5/3). Using a scintillation counter the ratio of radioactivity in PG to total radioactivity was determined and plotted vs. inhibitor concentration. IC50 values were determined using the curve fitting program GraphPad Prism 5.0 (GraphPad Software, Inc.; La Jolla, Calif., USA).
In test [4] the target is T1, S. aureus SgtB. Nature of the test: Dose-dependent displacement of probe CMG121 from S. aureus SgtB by fluorescence polarization. The format is binding. On the set-up: made in house. How it is done: (§1) I. Dose-Dependent Displacement of CMG121 from S. aureus SgtB by Fluorescence Polarization
(§2) A black 384 well plate (Corning NBS Low Volume No. 3820) was filled (10 μL per well) with an equilibrated solution containing 10 mM TRIS (pH=8.0), 100 mM NaCl, 75 nM CMG121, and 1.0-1.5 μM S. aureus SgtB (depending on protein batch). Due to presence of 8 mM CHAPS detergent in the buffer of the S. aureus SgtB stock, the final assay solution contains 100-160 μM CHAPS. Using an HP D300 Digital Dispenser, for each compound a 1/1 dilution series (12 wells) of the primary hit compound in DMSO (normalized to 1 μL with DMSO) was prepared and added to the aforementioned assay solution. The plate was incubated at 4° C. for 30 min and read with a Perkin Elmer EnVision microplate reader (FP-read out, excitation: 480 nm; emission: 535 nm).
(§3) FIGS. 10A-E show values of reduction of fluorescence polarization for exemplified compounds. […] In the primary assay, FP was read after 30 min at 4° C., compound concentration was ca. 100 μM, and 90% reduction in FP was threshold for scoring hits (Gampe et al., J. Am. Chem. Soc. 2013, 135 (10), 3776-3779; U.S. Provisional Patent Application, U.S. Ser. No. 61/621,229, filed on Apr. 6, 2012; International Application No. PCT/US2013/030800 filed on Mar. 13, 2013).
(§4) The values were determined in two independent experiments. IC50=10 μM; Hill slope: −0.92.
A general note: Polarisation of emitted light reports the rotation of a fluorescent probe.

The target of test [5] is T1, S. aureus SgtB. The test can be described thus: Michaelis-Menten kinetics of lipid II polymerization by S. aureus SgtB in the presence of 1882L04. The format is biochemical. Also on record: made in house. On the procedure: (ii) Determination of KM and vmax for Polymerization of Lipid II by S. aureus SgtB in the Presence of 1882L04
The polymerization reaction was initiated by addition of radioactively labeled lipid II (1 μL, 100 μM, ^14C/^12C=1/3; for a final concentration of 10 μM=KM). […] This ratio was multiplied with the concentration of lipid II used to obtain the amount of lipid II in PG in μM. This value was devided by 1200 s to obtain the reaction rate v in μM/s, which was plotted vs. concentration of lipid II.

The target of test [6] is T2, S. aureus SgtB (SgtB ΔTM) (Staphylococcus aureus, UniProt Q99T05).
T2 construct: SgtB ΔTM of S. aureus; made in house
The test can be described thus: Dose-dependent displacement of probe CMG121 from S. aureus SgtB by fluorescence polarization. The format is binding. Conditions: 75 nM CMG121, 1.0-1.5 μM SgtB, pH 8.0, 30 min at 4° C., read-out: SgtB (FP, probe CMG121 displacement) IC50. How it is done: FIGS. 10A to 10E show dose-dependent displacement of probe CMG121 from S. aureus SgtB with exemplified compounds determined by fluorescence polarization.
All of the references are incorporated by reference herein. • SgtB ΔTM of S. aureus (referred to as “SgtB”), • PBP2a (A68-N728) of E. faecalis (referred to as “PBP2a”)
Probe compound CMG121 was prepared as previously described (Gampe et al., J. Am. Chem. Soc. 2013, 135 (10), 3776-3779; U.S. Provisional Patent Application Nos. 61/621,229 filed on Apr. 6, 2012).
as §1, §2, §3, §4

The next test concerns S. aureus ATCC 29213. Nature of the test: MIC test according to CLSI M7-A9, S. aureus ATCC 29213. The format is cell-based. Conditions: Staphylococcus aureus, ATCC29213; CLSI M7-A9, CAMHB, 24 h (Table 3); read-out: S. aureus ATCC 29213 MIC. The gist of the method:
(§5)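 Per CLSI M7-A9, DMSO stocks diluted in cation-adjusted Mueller Hinton broth, plates incubated 24 h at 37 °C in air. MIC is the lowest concentration giving complete inhibition of visible growth, read visually and at 600 nm.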

In another test the test system is S. aureus ATCC 43300. Nature of the test: MIC test according to CLSI M7-A9, S. aureus ATCC 43300. The format is cell-based. Conditions: Staphylococcus aureus, ATCC43300; CLSI M7-A9, CAMHB, 24 h (Table 3); read-out: S. aureus ATCC 43300 MIC. The gist of the method: as §5
The next test relates to S. aureus Newman. The test can be described thus: MIC test according to CLSI M7-A9, S. aureus Newman. The format is cell-based. Conditions: Staphylococcus aureus, CLSI M7-A9, CAMHB, 24 h (Table 3), read-out: S. aureus ATCC Newman MIC. The gist of the method: as §5
A further test has as its system H. influenzae ATCC 49247. The test can be described thus: MIC test according to CLSI M7-A9, H. influenzae ATCC 49247. The format is cell-based. Conditions: Haemophilus influenzae, ATCC49247; CLSI M7-A9, Haemophilus Test Medium, 24 h. How it is done: MIC Test (H. influenzae ATCC 49247)
Susceptibility testing of H. influenzae ATCC 49247 was performed according to Clinical Laboratory Standard Institute (CLSI) guidelines M7-A9. Test articles were stored at room temperature prior to use, then dissolved in filtered sterile DMSO. Stock DMSO solutions were diluted further in Haemophilus Test Medium (HTM) to provide appropriate test concentrations. Cultures of H. influenzae ATCC 49247 were added in accordance with CLSI guidelines and plates incubated at 37° C. in air for 24 h. Endpoints were determined visually (and by spectrophotometer at 600 nm) and the minimum inhibitory concentration (MIC) defined as the lowest concentration of test articles resulting in complete inhibition of visible bacterial growth.

Converted amounts (≈) assume the structure as drawn. Read-outs that look alike come from different tables or passages of the source.

Protocol for E. faecalis PBP2a: (ii) In Vitro Inhibition of E. faecalis PBP2a
Solutions of the E. faecalis PBP2a (50 nM) in 50 mM HEPES (pH=7.5), 10 mM CaCl2, and 1000 U/min PenG (8 μL) were incubated with DMSO solutions containing the inhibitor of interest in different concentrations (1 μL) for 20 min. Then ^14C-labelled lipid II (1 μL, 40 μM, ^14C/^12C 1/3) was added and the polymerization reaction was allowed to proceed for 25 min at room temperature.

Turning to `Cc1cccc(OCCCSc2nc(-c3ccc(C(C)(C)C)cc3)nc3cc(=O)[nH]n23)c1C` [1882L04], the IC50 with E. faecalis PBP2a was 337 µM; on S. aureus SgtB [3] it was 97 µM; on S. aureus SgtB [4] (displacement of 75 nM CMG121 from S. aureus SgtB, 30 min at 4° C., read-out: IC50 from FP Assay) it was 10 µM. Further, in the test on MSSA Newman, the “MIC MSSA Newman” value amounted to 125 µg/mL (≈ 270 µM). For the same compound, the “Sensitization of MSSA NE1 to compound (MIC data)” value in the test on MSSA NE1 is recorded as “sensitized”. Further, in the test with MSSA NE1 (TSB, 37° C., MTT staining after 22 h), the “MIC MSSA NE1” value came out at 8 µg/mL (≈ 17.3 µM). The “Type of antibacterial activity (number of CFUs)” value in the test with S. aureus RN4220 [1] is reported as “bacteriostatic activity”. In addition, the “Cell morphology by TEM” value with S. aureus NEI was “growth defects”. Moreover, the Development of resistance entry with S. aureus RN4220 [2] is listed as “became resistant”. For the same compound, the Hill slope at S. aureus SgtB [4] (displacement of CMG121 from S. aureus SgtB, two independent experiments) is recorded as −0.92. The results for the Km on S. aureus SgtB [5] (c(1882L04)=50 μM) and at S. aureus SgtB [5] (c(1882L04)=100 μM) were 18.2 µM and 20.9 µM, respectively. Moreover, the figures for the “vmax for polymerization of lipid II by SgtB” value on S. aureus SgtB [5] (c(1882L04)=50 μM) and at S. aureus SgtB [5] (c(1882L04)=100 μM) were 0.015 µM/s and 0.012 µM/s, respectively.

`Cc1ccc(OCCCSc2nc(-c3ccc(C(C)(C)C)cc3)nc3cc(=O)[nH]n23)cc1C` [Compound 1882F04]: the IC50 in test [6] (Figure 10F) came to 26 µM.

With `Cc1ccc(C(C)C)c(OCCSc2nc(-c3ccccc3F)nc3cc(=O)[nH]n23)c1` [Compound 1882J21], in [6] (Figure 10F), the IC50 was over 200 µM.

As to `Cc1cccc(OCCCSc2nc(-c3ccc(C(C)(C)C)cc3)nc3cc(=O)[nH]n23)c1C` [Compound 1882L04], the IC50 in test [6] (Figure 5) stood at 7 µM.

Turning to `Cc1ccc(-c2nc(SCCOc3ccccc3C)n3[nH]c(=O)cc3n2)cc1` [Compound 1882P19], the IC50 in test [6] (Figure 10F) is over 200 µM.

In the case of `CC(C)(C)c1ccc(-c2nc(NCCNC3Cc4ccccc4C3)n3[nH]c(=O)cc3n2)cc1` [Example 90, 2-(4-tert-Butylphenyl)-4-({2-[(2,3-dihydro-1H-inden-2-yl)amino]ethyl}amino)-6H,7H-pyrazolo[1,5-a][1,3,5]triazin-7-one], the MIC in the test on S. aureus ATCC 29213, in the test on S. aureus ATCC 43300, in the test with S. aureus Newman and in the test with H. influenzae ATCC 49247 was 16 µg/mL (≈ 36.2 µM) in each case.

Consider `Cc1ccc(Cc2c(=O)[nH]n3c(=S)[nH]c(-c4ccc(C(C)(C)C)cc4)nc23)cn1` [Example 112, 2-(4-tert-butylphenyl)-8-[(6-methylpyridin-3-yl)methyl]-4-sulfanylidene-3H,4H,6H,7H-pyrazolo[1,5-a][1,3,5]triazin-7-one], for which the MIC came to 8 µg/mL (≈ 19.7 µM) in the test on S. aureus ATCC 29213, 4 µg/mL (≈ 9.86 µM) with S. aureus Newman and 16 µg/mL (≈ 39.5 µM) in the test with H. influenzae ATCC 49247.

For the compound `O=c1[nH]n2c(=S)[nH]c(C34CC5CC(CC(C5)C3)C4)nc2c1Cc1ccccc1` [Example 121, 2-(adamantan-1-yl)-8-benzyl-4-sulfanylidene-3H,4H,6H,7H-pyrazolo[1,5-a][1,3,5]triazin-7-one], the results for the MIC in the test with S. aureus ATCC 29213, in the test with S. aureus Newman and with H. influenzae ATCC 49247 were 4 µg/mL (≈ 10.2 µM), 4 µg/mL (≈ 10.2 µM) and 8 µg/mL (≈ 20.4 µM), respectively.

Usually IC50 stands for the midpoint of a concentration-inhibition curve. Broadly, the Hill slope is the slope factor of the fitted curve. What is called Km is the substrate concentration at which the rate is half of its maximum.
